SMILES strings stand for the structures.

The values that follow come from US11337988B2, “Use of ouabain antagonists to inhibit viral infection” (priority 2018, dated 2022).

The subject of one data set is EGFR Tyr845. The data set can be described thus: EGFR phosphorylation array (pTyr845) in A549 cells. To be noted: without RSV infection.
The test system of another data set is RSV-GFP. The data set can be described thus: RSV-GFP infection of A549 cells, GFP intensity of total well by ELISA reader. The settings on record: discussion statement.
The test system of a further data set is RSV. Briefly: Preliminary studies of RSV infection with an inhibitor of clathrin-mediated endocytosis. The class given is cell-based, human respiratory syncytial virus (RSV). The settings on record: non-toxic concentrations.
The conditions of data set [1]: including 5 mg twice a day for a week and 0.5 mg per day for three months; cited from earlier work.
In the next data set the target is T1, ATP1A1 (Homo sapiens, UniProt P05023).
T1 construct: ATP1A1 being expressed ubiquitously and being the predominant isoform expressed in A549 cells; endogenous in cells; host or cells: A549 cells (ATCC CCL-185)
The data set can be described thus: RSV-induced ATP1A1 clustering in A549 cells by confocal immunofluorescence. The class given is cell-based. The settings on record: A549 treated overnight, RSV MOI=5 PFU/cell, 5 hours. An excerpt: Whether PST2238 treatment had any effect on the clustering of ATP1A1 and RSV proteins was also investigated.
Immunofluorescence microscopy.

The conditions of data set [2]: adducin- and ouabain-induced forms of hypertension; normal systolic blood pressure of healthy individuals not lowered; cited from earlier work.

Experimental for EGFR Tyr845: A549 cells were treated as indicated (either siRNA knock down for 48 h or pre-treatment with the chemical compounds ouabain [25 n1\4], PST2238 [40 μM] or Src Inhibitor-I (SrcI-I) [6.25 μM] and PP2 [12.5 μM] for 5 h pre-inoculation). Cells were serum starved overnight, before they were inoculated with wt RSV (MOI=5 PFU/cell) and incubated at 37° C. Cells were lysed 5 h p.i. and subjected to a phospho-specific EGFR array (RayBiotech, Inc.). (FIG. 8A) Representative array spots of pTyr845 EGFR and its corresponding pan EGFR for each treatment are shown. […] (FIG. 8D) As control, PST2238 or Ouabain pretreated A549 cells were stimulated with EGF (100 ng/ml) for 45 min and the pTyr845 EGFR signal was quantified. The statistical significance of the differences were determined by one-way analysis of variance with Dunnett multiple-comparison test and the significance p-values are indicated for each comparison. […]
Quantification of EGFR phosphorylation. […] The protein concentration of the lysate was quantified by bicinchoninic acid (BCA) assay (Thermo Fisher Scientific) and lysate containing 150 μg total protein was used for each array. […] The light emission of the array spots was detected by exposure to X-ray films. The films were scanned and the intensity values of each spot were quantified by ImageQuant TL (Array Version 8.1, GE Healthcare). […]
Experimental for RSV-GFP: Quantification of RSV infection by viral expressed GFP. For the evaluation of RSV infection, RSV-GFP, a recombinantly derived virus that expresses enhanced green fluorescent protein (eGFP) from an additional gene inserted between the P and M genes, was used. SiRNA transfected or pre-treated A549 cells, seeded in a 12-well plate, were inoculated with an MOI of 1.0 PFU/cell. Inoculum was adsorbed for 2 h by incubating on a rocking platform at 37° C., after which the inoculum was washed off and replaced with fresh media. The infected cells were incubated for 17 h at 37° C. and 5% CO2 and the infectivity was evaluated by quantifying GFP either by ELISA reader or flow cytometry. For the ELISA reader quantification, the GFP intensity of the infected monolayer was quantified by an area scan (average GFP intensity of 29 individual measurements per well) on a Synergy 2 ELISA reader (BioTek). […] For the flow cytometry based GFP quantification, the cells were detached with 1 mM EDTA, stained with LIVE/DEAD fixable dead cell staining kit (Life Technologies), and fixed with 4% paraformaldehyde (PFA, Electron Microscopy Science, PA). The GFP intensities of single, live cells were analyzed on a Canto II flow cytometer (BD Biosciences, Franklin Lakes, N.J.).

For the compound `C[C@@H]1O[C@@H](O[C@H]2C[C@@H](O)[C@]3(CO)[C@@H]4[C@@H](CC[C@]3(O)C2)[C@@]2(O)CCC(C3=CC(=O)OC3)[C@@]2(C)C[C@@H]4O)[C@H](O)[C@H](O)[C@H]1O` (stereo partly drawn) [ouabain, (1β,3β,5β,11α)-3-[(6-Deoxy-α-L-mannopyranosyl)oxy]-1,5,11,14,19-pentahydroxycard-20(22)-enolide], in the data set on EGFR Tyr845, the “detection of phosphorylation of EGFR Tyr845 following treatment with compound alone” value is listed as “not following treatment with ouabain”. Further, the “concentrations at which inhibition of RSV infection was achieved” value in the data set on RSV-GFP is “sub-nanomolar”.

`CN(C)CCCN1c2ccccc2Sc2ccc(Cl)cc21` [chlorpromazine]: in the data set on RSV, the “effects on RSV infection” value is reported as “did not detect effects”.

As to `C[C@]12CC[C@H](O)C[C@H]1CC[C@@H]1[C@@H]2CC[C@]2(C)[C@@](O)(c3ccoc3)CC[C@]12O` [PST2238, (3β,5β,14β)-21,23-Epoxy-24-norchola-20,22-diene-3,14,17-triol], the “toxicity in human and animal models” value in data set [1] is “non-toxic”. Moreover, the “effect on the clustering of ATP1A1” value on ATP1A1 was “no apparent effect”. The “effect on blood pressure” value in data set [2] is “lowers the blood pressure”.
